Measured values reported in patent US11883526B2 (priority 2019, dated 2024).
Like-named read-outs stand apart in the source and are kept apart here.

Test system: subjects with MDD at imminent risk for suicide
Conditions: 84 mg
[1] = TEAE, double-blind phase, N = 35
[2] = adverse event, follow up phase, N = 27
[3] = overall summary, double-blind phase, N = 35
[4] = serious TEAE, double-blind phase, N = 35
[5] = serious adverse event, follow up phase, N = 27

CN[C@]1(c2ccccc2Cl)CCCCC1=O [esketamine, (S)-2-(2-chlorophenyl)-2-(methylamino)cyclohexanone]
(20.0%): Vomiting: % of subjects [1]
33: TEAE: no. of subjects [3]
3: Vision blurred: no. of subjects [1] | Infections and infestations: no. of subjects [2] | Insomnia: no. of subjects [2]
29: Possibly related TEAE: no. of subjects [3]
2.9%: Agitation: % of subjects [4] | Depressive symptom: % of subjects [4]
3.7%: Psychiatric disorders: % of subjects [5] | Suicidal ideation: % of subjects [5] | Total no. subjects with a serious adverse event: % of subjects [5]
5: Psychiatric disorders: no. of subjects [2] | TEAE leading to drug withdrawn: no. of subjects [3]
5.7%: Suicidal ideation: % of subjects [4]
(5.7%): Weight increased: % of subjects [1]
(3.7%): Abdominal pain: % of subjects [2] | Abdominal tenderness: % of subjects [2] | Back pain: % of subjects [2] | Cogwheel rigidity: % of subjects [2] | Contusion: % of subjects [2] | Depression: % of subjects [2] | Diarrhea: % of subjects [2] | Dizziness: % of subjects [2] | Dysgeusia: % of subjects [2] | Ear infection: % of subjects [2] | Epistaxis: % of subjects [2] | Flank pain: % of subjects [2] | Intentional self-injury: % of subjects [2] | Loss of consciousness: % of subjects [2] | Migraine: % of subjects [2] | Musculoskeletal chest pain: % of subjects [2] | Musculoskeletal pain: % of subjects [2] | Nasal congestion: % of subjects [2] | Nasopharyngitis: % of subjects [2] | Neck pain: % of subjects [2] | Night sweats: % of subjects [2] | Pelvic pain: % of subjects [2] | Reproductive system and breast disorders: % of subjects [2] | Restlessness: % of subjects [2] | Road traffic accident: % of subjects [2] | Sedation: % of subjects [2] | Skin and subcutaneous tissue disorders: % of subjects [2] | Suicidal ideation: % of subjects [2] | Upper respiratory tract infection: % of subjects [2] | Vomiting: % of subjects [2] | Vulvovaginal mycotic infection: % of subjects [2]
(22.2%): Gastrointestinal disorders: % of subjects [2] | Nervous system disorders: % of subjects [2]
1: Abdominal pain: no. of subjects [2] | Abdominal tenderness: no. of subjects [2] | Back pain: no. of subjects [2] | Cogwheel rigidity: no. of subjects [2] | Contusion: no. of subjects [2] | Depression: no. of subjects [2] | Diarrhea: no. of subjects [2] | Dizziness: no. of subjects [2] | Dysgeusia: no. of subjects [2] | Ear infection: no. of subjects [2] | Epistaxis: no. of subjects [2] | Flank pain: no. of subjects [2] | Intentional self-injury: no. of subjects [2] | Loss of consciousness: no. of subjects [2] | Migraine: no. of subjects [2] | Musculoskeletal chest pain: no. of subjects [2] | Musculoskeletal pain: no. of subjects [2] | Nasal congestion: no. of subjects [2] | Nasopharyngitis: no. of subjects [2] | Neck pain: no. of subjects [2] | Night sweats: no. of subjects [2] | Pelvic pain: no. of subjects [2] | Reproductive system and breast disorders: no. of subjects [2] | Restlessness: no. of subjects [2] | Road traffic accident: no. of subjects [2] | Sedation: no. of subjects [2] | Skin and subcutaneous tissue disorders: no. of subjects [2] | Suicidal ideation: no. of subjects [2] | Upper respiratory tract infection: no. of subjects [2] | Vomiting: no. of subjects [2] | Vulvovaginal mycotic infection: no. of subjects [2] | Agitation: no. of subjects [4] | Depressive symptom: no. of subjects [4] | Psychiatric disorders: no. of subjects [5] | Suicidal ideation: no. of subjects [5] | Total no. subjects with a serious adverse event: no. of subjects [5]
7: Vomiting: no. of subjects [1]
13: Total no. subjects with adverse events: no. of subjects [2]
(11.1%): Infections and infestations: % of subjects [2] | Insomnia: % of subjects [2]
14.3%: TEAE leading to drug withdrawn: % of subjects [3]
0: Aphthous ulcer: no. of subjects [2] | Bronchitis: no. of subjects [2] | Cellulitis: no. of subjects [2] | Depressed mood: no. of subjects [2] | Drug hypersensitivity: no. of subjects [2] | Ear and labyrinth disorders: no. of subjects [2] | Folliculitis: no. of subjects [2] | Immune system disorders: no. of subjects [2] | Influenza: no. of subjects [2] | Meniere's disease: no. of subjects [2] | Metabolism and nutrition disorders: no. of subjects [2] | Nausea: no. of subjects [2] | Panic reaction: no. of subjects [2] | Polydipsia: no. of subjects [2] | Procedural pain: no. of subjects [2] | Rash: no. of subjects [2] | Renal and urinary disorders: no. of subjects [2] | Renal failure: no. of subjects [2] | Self-injurious ideation: no. of subjects [2] | Sexual dysfunction: no. of subjects [2] | Somnolence: no. of subjects [2] | Suicide attempt: no. of subjects [2] | Tooth impacted: no. of subjects [2] | Toothache: no. of subjects [2] | Viral upper respiratory tract infection: no. of subjects [2] | TEAE leading to death: no. of subjects [3] | Cellulitis: no. of subjects [5] | Infections and infestations: no. of subjects [5] | Suicide attempt: no. of subjects [5]
2: Weight increased: no. of subjects [1] | Dry mouth: no. of subjects [2] | Headache: no. of subjects [2] | Injury, poisoning and procedural complications: no. of subjects [2] | Musculoskeletal and connective tissue disorders: no. of subjects [2] | Pharyngitis: no. of subjects [2] | Respiratory, thoracic and mediastinal disorders: no. of subjects [2] | Tremor: no. of subjects [2] | Suicidal ideation: no. of subjects [4]
(18.5%): Psychiatric disorders: % of subjects [2]
6: Gastrointestinal disorders: no. of subjects [2] | Nervous system disorders: no. of subjects [2]
11.4%: 1 or more serious TEAE: % of subjects [3] | Psychiatric disorders: % of subjects [4] | Total no. subjects with a serious TEAE: % of subjects [4]
(48.1%): Total no. subjects with adverse events: % of subjects [2]
4: Vertigo: no. of subjects [1] | 1 or more serious TEAE: no. of subjects [3] | Psychiatric disorders: no. of subjects [4] | Total no. subjects with a serious TEAE: no. of subjects [4]
82.9%: Possibly related TEAE: % of subjects [3]
(8.6%): Vision blurred: % of subjects [1]
94.3%: TEAE: % of subjects [3]
(7.4%): Dry mouth: % of subjects [2] | Headache: % of subjects [2] | Injury, poisoning and procedural complications: % of subjects [2] | Musculoskeletal and connective tissue disorders: % of subjects [2] | Pharyngitis: % of subjects [2] | Respiratory, thoracic and mediastinal disorders: % of subjects [2] | Tremor: % of subjects [2]
